{
  "source": "patent US20100183687A1",
  "about": "“PROCESS FOR PREPARING PARTICLES OF OPIOIDS AND COMPOSITIONS PRODUCED THEREBY” (priority 2009, published 2010)",
  "origin": "cited, not measured here",
  "settings": "water",
  "data": [
    {"smiles": "COc1ccc2c3c1O[C@H]1C(=O)CC[C@@]4(O)[C@@H](C2)N(C)CC[C@]314.Cl", "note": "[oxycodone hydrochloride]", "values": [
      {"measurement": "solubility at neutral pH", "result": 100, "unit": "mg/ml"}
    ]}
  ]
}
